Source: PMC10009787 (ACS Medicinal Chemistry Letters, 2023)
Read-outs that look alike come from different tables or passages of the source.

Key:
CSK = CSK (Homo sapiens, UniProt P41240); test: SelectScreen kinase profiling; format: biochemical; conditions: average of duplicate
CSNK1E (CK1 epsilon) = CSNK1E (CK1 epsilon) (Homo sapiens, UniProt P49674); test: SelectScreen kinase profiling; format: biochemical; conditions: average of duplicate
EGFR (ErbB1) L858R = EGFR (ErbB1) L858R (Homo sapiens, UniProt P00533, L858R); test: SelectScreen kinase profiling; format: biochemical; conditions: average of duplicate
FGFR2 = FGFR2 (Homo sapiens, UniProt P21802); test: SelectScreen kinase profiling; format: biochemical; conditions: average of duplicate
FGFR3 = FGFR3 (Homo sapiens, UniProt P22607); test: SelectScreen kinase profiling; format: biochemical; conditions: average of duplicate
FGFR3, sequence (P22607 23-806): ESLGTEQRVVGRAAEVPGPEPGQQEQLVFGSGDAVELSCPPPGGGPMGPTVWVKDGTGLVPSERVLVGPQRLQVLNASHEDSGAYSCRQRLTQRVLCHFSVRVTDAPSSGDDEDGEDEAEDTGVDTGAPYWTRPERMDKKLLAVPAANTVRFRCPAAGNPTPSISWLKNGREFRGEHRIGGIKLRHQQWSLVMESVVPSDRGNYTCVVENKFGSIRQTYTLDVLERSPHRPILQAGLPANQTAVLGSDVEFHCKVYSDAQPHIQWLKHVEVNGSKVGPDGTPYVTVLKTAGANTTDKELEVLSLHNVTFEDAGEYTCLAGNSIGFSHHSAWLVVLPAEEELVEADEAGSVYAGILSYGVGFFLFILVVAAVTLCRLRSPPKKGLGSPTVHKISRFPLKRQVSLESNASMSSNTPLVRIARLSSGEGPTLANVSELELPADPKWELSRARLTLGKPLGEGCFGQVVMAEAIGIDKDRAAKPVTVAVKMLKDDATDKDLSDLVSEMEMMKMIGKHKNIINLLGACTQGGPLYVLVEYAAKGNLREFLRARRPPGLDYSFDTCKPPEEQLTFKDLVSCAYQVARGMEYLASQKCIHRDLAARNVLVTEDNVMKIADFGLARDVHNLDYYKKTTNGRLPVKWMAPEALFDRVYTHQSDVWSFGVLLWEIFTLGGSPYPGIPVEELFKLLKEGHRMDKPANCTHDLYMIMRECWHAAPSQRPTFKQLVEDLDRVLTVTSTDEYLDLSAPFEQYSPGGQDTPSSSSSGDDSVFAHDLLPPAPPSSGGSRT

FGR = FGR (Homo sapiens, UniProt P09769); test: SelectScreen kinase profiling; format: biochemical; conditions: average of duplicate
FLT3 = FLT3 (Homo sapiens, UniProt P36888); test: SelectScreen kinase profiling; format: biochemical; conditions: average of duplicate
FLT4 (VEGFR3) = FLT4 (VEGFR3) (Homo sapiens, UniProt P35916); test: SelectScreen kinase profiling; format: biochemical; conditions: average of duplicate
LYN B = LYN B (Homo sapiens, UniProt P07948); test: SelectScreen kinase profiling; format: biochemical; conditions: average of duplicate
LYN B, sequence (P07948 1-491 isoform P07948-2): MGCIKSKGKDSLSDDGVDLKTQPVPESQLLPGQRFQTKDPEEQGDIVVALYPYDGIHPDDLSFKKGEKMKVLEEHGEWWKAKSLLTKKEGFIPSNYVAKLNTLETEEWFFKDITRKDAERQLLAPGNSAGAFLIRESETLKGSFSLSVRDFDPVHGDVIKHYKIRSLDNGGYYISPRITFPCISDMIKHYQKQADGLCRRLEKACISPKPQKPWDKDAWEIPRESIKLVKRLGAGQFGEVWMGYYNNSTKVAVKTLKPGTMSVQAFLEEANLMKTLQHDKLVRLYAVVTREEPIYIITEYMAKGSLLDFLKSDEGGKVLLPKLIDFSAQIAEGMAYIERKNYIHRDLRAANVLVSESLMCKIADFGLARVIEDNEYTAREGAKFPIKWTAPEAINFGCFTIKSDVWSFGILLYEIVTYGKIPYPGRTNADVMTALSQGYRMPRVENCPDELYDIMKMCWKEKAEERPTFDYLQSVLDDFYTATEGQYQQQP

RET = RET (Homo sapiens, UniProt P07949); test: SelectScreen kinase profiling; format: biochemical; conditions: average of duplicate
TNK1 = TNK1 (Homo sapiens, UniProt Q13470); test: SelectScreen kinase profiling; format: biochemical; conditions: average of duplicate
TNK1, sequence (Q13470 whole entry): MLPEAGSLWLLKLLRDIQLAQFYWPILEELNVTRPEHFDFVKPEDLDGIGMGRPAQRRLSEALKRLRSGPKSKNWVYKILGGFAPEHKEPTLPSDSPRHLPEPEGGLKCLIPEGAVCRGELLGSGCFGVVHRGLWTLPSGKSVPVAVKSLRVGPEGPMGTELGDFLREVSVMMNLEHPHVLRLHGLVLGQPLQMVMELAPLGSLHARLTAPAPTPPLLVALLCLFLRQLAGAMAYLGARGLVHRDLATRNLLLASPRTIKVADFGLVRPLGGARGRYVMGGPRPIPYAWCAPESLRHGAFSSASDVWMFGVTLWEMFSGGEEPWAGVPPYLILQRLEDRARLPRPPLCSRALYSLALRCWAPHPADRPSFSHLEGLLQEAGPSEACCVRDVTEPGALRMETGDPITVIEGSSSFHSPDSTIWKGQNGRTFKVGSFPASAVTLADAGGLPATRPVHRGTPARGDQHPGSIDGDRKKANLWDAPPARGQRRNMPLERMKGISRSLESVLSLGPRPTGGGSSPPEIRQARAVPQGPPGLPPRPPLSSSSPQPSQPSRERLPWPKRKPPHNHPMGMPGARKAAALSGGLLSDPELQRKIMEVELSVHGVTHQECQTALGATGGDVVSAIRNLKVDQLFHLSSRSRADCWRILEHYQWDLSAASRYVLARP

TXK = TXK (Homo sapiens, UniProt P42681); test: SelectScreen kinase profiling; format: biochemical; conditions: average of duplicate
TXK, sequence (P42681 whole entry): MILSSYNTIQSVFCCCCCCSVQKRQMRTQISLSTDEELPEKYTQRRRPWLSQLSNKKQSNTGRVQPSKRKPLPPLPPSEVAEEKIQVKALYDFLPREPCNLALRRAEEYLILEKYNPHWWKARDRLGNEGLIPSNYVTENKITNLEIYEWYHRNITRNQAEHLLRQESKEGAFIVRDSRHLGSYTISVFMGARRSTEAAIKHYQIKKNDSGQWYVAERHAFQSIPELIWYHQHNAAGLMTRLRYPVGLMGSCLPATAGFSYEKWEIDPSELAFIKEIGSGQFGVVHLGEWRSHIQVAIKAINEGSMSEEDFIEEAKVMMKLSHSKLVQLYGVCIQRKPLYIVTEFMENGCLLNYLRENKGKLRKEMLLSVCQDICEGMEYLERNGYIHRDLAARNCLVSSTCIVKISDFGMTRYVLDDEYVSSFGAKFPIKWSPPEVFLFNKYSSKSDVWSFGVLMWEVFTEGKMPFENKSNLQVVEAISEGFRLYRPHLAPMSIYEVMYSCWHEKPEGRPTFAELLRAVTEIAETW

MAP2K5 (MEK5) = MAP2K5 (MEK5) (Homo sapiens, UniProt Q13163); test: SelectScreen kinase profiling; format: biochemical; conditions: average of duplicate
MAP2K5 (MEK5), sequence (Q13163 whole entry): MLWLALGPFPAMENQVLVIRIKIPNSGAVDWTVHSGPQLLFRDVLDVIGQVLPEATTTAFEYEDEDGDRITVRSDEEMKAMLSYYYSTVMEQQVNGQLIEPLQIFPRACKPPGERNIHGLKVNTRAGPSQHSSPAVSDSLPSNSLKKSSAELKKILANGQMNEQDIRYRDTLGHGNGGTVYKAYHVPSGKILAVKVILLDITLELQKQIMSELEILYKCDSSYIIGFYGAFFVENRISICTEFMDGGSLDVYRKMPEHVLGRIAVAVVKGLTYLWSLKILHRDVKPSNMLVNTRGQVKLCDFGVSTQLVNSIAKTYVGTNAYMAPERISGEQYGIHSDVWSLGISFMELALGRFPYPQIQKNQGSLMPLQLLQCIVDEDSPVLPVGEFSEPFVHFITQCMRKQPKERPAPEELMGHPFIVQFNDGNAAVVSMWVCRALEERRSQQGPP

RET M918T = RET M918T (Homo sapiens, UniProt P07949, M918T); test: SelectScreen kinase profiling; format: biochemical; conditions: average of duplicate
RIPK2 = RIPK2 (Homo sapiens, UniProt O43353); test: SelectScreen kinase profiling; format: biochemical; conditions: average of duplicate
RIPK2, sequence (O43353 whole entry): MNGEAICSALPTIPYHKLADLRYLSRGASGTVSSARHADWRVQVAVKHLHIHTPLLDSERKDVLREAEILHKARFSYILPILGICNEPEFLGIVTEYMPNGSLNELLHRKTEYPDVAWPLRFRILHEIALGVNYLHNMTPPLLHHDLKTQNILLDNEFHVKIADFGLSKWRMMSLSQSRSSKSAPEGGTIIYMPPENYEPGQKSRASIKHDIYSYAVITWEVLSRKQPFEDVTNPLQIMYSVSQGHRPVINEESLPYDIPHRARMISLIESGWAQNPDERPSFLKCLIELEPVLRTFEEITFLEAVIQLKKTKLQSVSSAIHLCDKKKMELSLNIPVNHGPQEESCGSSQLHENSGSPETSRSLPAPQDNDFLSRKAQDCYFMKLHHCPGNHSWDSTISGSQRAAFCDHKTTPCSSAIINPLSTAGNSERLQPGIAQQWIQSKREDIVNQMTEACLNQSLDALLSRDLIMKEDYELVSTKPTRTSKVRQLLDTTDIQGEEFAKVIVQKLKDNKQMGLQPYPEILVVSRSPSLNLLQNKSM

ZAK = ZAK (Homo sapiens, UniProt Q9NYL2); test: SelectScreen kinase profiling; format: biochemical; conditions: average of duplicate
BTK-NanoLuc fusion = biological target: T1, BTK-NanoLuc fusion (Homo sapiens, UniProt Q06187); test: NanoBRET cellular engagement of BTK; format: cell-based; conditions: for IC50: HEK293 cells
T1 construct: host or cells: HEK293
T1 sequence (Q06187 whole entry, the tested form may be a part): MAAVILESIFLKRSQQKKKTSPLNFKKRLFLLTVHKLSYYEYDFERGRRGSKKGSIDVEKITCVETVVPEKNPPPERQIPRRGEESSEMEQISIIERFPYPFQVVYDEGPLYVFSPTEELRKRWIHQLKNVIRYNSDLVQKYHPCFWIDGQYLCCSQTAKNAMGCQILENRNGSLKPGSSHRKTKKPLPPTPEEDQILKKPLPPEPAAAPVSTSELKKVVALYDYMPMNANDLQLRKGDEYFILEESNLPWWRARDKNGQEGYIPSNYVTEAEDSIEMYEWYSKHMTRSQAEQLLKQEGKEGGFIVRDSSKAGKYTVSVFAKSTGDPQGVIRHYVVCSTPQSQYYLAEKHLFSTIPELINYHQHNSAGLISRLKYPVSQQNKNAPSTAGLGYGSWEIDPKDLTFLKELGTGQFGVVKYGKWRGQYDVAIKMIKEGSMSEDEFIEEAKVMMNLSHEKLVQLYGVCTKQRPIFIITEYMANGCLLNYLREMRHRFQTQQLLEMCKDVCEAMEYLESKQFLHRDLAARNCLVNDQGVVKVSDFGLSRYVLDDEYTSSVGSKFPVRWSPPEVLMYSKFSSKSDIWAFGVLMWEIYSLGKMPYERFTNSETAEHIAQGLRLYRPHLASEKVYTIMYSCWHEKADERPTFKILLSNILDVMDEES
Protocol: NanoBRET Experiments: HEK293 cells were transfected with the BTK-NanoLuc fusion vector (Promega, #N2501) according to the manufacturer’s protocol. After […]
Promega, #N2501) for 30 minutes. After an additional 30, 60, or 90 minutes the NanoBRET complete substrate plus inhibitor solution (3X solution in Opti-MEM I reduced serum medium, no phenol red, Promega, #N2501) was added to each well.
After 5-10 minutes, the BRET ratio was measured using BMG Labtech CLARIOstar with preloaded filters for donor 450nm/80nm BP (band pass) and acceptor 610nm LP (long

BLK [1] = biological target: T2, BLK (Homo sapiens, UniProt P51451); test: SelectScreen kinase profiling / Z′-Lyte kinase assay
T2 sequence (P51451 whole entry): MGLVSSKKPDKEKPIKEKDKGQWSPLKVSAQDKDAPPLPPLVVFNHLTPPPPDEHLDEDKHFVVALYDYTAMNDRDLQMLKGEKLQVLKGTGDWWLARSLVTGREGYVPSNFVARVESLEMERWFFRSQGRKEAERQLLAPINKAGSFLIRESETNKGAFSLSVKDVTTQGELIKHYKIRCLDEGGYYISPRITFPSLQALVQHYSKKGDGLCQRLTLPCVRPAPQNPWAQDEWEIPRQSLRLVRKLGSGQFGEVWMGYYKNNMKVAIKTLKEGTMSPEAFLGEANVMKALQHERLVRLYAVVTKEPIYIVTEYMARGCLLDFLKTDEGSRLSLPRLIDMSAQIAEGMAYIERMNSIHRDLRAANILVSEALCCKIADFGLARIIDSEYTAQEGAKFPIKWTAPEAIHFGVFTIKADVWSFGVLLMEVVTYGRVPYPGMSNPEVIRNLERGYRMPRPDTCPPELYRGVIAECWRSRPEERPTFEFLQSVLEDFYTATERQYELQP

BTK = BTK (Homo sapiens, UniProt Q06187); test: as above
BTK, sequence (Q06187 whole entry): as the sequence (Q06187 whole entry, the tested form may be a part) above

JAK3 = JAK3 (Homo sapiens, UniProt P52333); test: as above; conditions: for JAK3, BTK/Kinase: BTK selectivity from IC50 values; for Hillslope: JAK3 IC50 curve
JAK3, sequence (P52333 781-1124 limits assumed): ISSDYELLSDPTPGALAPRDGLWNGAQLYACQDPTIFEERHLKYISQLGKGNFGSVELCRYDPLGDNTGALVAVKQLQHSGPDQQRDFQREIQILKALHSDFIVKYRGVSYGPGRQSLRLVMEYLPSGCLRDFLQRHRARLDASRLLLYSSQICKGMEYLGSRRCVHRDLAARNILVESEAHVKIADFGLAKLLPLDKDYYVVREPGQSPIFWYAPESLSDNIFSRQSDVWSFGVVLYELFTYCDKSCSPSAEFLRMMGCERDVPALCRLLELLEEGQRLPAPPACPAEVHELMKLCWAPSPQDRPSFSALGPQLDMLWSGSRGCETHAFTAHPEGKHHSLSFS

BLK [2] = biological target: T2, BLK; test: AssayQuant kinact/Ki profiling, PhosphoSens CSox-based kinetic assay; format: biochemical; set-up: purchased ThermoFisher / Life Technologies SelectScreen PV3683; conditions: for kinact/KI / BLK kinact/Ki: 2.5 nM enzyme, 1000 µM ATP, two step fit; for kinact: fitted value, two step

C=CC(=O)N1CCCC(n2nc(-c3c(C)cc(Oc4ccccc4)cc3C)c3c(N)ncnc32)C1 (stereo in doubt) [Compound 3]
inhibition at 1 µM (CSK): 15%
inhibition at 1 µM (CSNK1E (CK1 epsilon)): 9%
inhibition at 1 µM (EGFR (ErbB1) L858R): 2%
inhibition at 1 µM (FGFR2): 8%
inhibition at 1 µM (FGFR3): 3%
inhibition at 1 µM (FGR): 53%
inhibition at 1 µM (FLT3): 13%
inhibition at 1 µM (FLT4 (VEGFR3)): 5%
inhibition at 1 µM (LYN B): 28%
inhibition at 1 µM (RET): 5%
inhibition at 1 µM (TNK1): 2%
inhibition at 1 µM (TXK): 94%
inhibition at 1 µM (MAP2K5 (MEK5)): 10%
inhibition at 1 µM (RET M918T): 6%
inhibition at 1 µM (RIPK2): 29%
inhibition at 1 µM (ZAK): 0%
NanoBRET HillSlope (BTK-NanoLuc fusion; 30 + 30): -1.148
NanoBRET HillSlope (BTK-NanoLuc fusion; 30 + 60): -1.118
NanoBRET HillSlope (BTK-NanoLuc fusion; 30 + 90): -1.419
NanoBRET HillSlope (BTK-NanoLuc fusion; 30 min Inc): -1.230
IC50 (BTK-NanoLuc fusion; 30 min): 806 nM
IC50 (BTK-NanoLuc fusion; 60 min (30 + 30)): 474 nM
IC50 (BTK-NanoLuc fusion; 90 min (30 + 60)): 341 nM
IC50 (BTK-NanoLuc fusion; 90 min post compound addition): 314 nM
IC50 (BTK-NanoLuc fusion; 120 min (30 + 90)): 315 nM
inhibition at 1 µM (BLK [1]): 100%
IC50 (BLK [1]; BLK IC50, Z′-Lyte, [ATP] Km app, 1 h incubation, duplicate): 35.6 nM
Hillslope (BLK [1]; BLK IC50 curve): 1.08
BLK, BTK/Kinase (BLK [1]; BTK selectivity from IC50 values): 2.8 x
inhibition at 0.000495 µM (BLK [1]; read-out: % Inhibition Point 1): -5%
inhibition at 0.00152 µM (BLK [1]; read-out: % Inhibition Point 1): 5%
inhibition at 0.00457 µM (BLK [1]; read-out: % Inhibition Point 1): 13%
inhibition at 0.0137 µM (BLK [1]; read-out: % Inhibition Point 1): 30%
inhibition at 0.0412 µM (BLK [1]; read-out: % Inhibition Point 1): 56%
inhibition at 0.123 µM (BLK [1]; read-out: % Inhibition Point 1): 77%
inhibition at 0.37 µM (BLK [1]; read-out: % Inhibition Point 1): 98%
inhibition at 1.11 µM (BLK [1]; read-out: % Inhibition Point 1): 101%
inhibition at 3.33 µM (BLK [1]; read-out: % Inhibition Point 1): 101%
inhibition at 10 µM (BLK [1]; read-out: % Inhibition Point 1): 101%
inhibition at 0.000495 µM (BLK [1]; read-out: % Inhibition Point 2): 8%
inhibition at 0.00152 µM (BLK [1]; read-out: % Inhibition Point 2): -3%
inhibition at 0.00457 µM (BLK [1]; read-out: % Inhibition Point 2): 7%
inhibition at 0.0137 µM (BLK [1]; read-out: % Inhibition Point 2): 24%
inhibition at 0.0412 µM (BLK [1]; read-out: % Inhibition Point 2): 55%
inhibition at 0.123 µM (BLK [1]; read-out: % Inhibition Point 2): 82%
inhibition at 0.37 µM (BLK [1]; read-out: % Inhibition Point 2): 96%
inhibition at 1.11 µM (BLK [1]; read-out: % Inhibition Point 2): 101%
inhibition at 3.33 µM (BLK [1]; read-out: % Inhibition Point 2): 102%
inhibition at 10 µM (BLK [1]; read-out: % Inhibition Point 2): 101%
inhibition at 1 µM (BTK): 100%
IC50 (BTK; BTK IC50, Z′-Lyte, [ATP] Km app, 1 h incubation, duplicate): 12.8 nM
Hillslope (BTK; BTK IC50 curve): 1.25
inhibition at 0.000495 µM (BTK; read-out: % Inhibition Point 1): -4%
inhibition at 0.00152 µM (BTK; read-out: % Inhibition Point 1): 11%
inhibition at 0.00457 µM (BTK; read-out: % Inhibition Point 1): 23%
inhibition at 0.0137 µM (BTK; read-out: % Inhibition Point 1): 49%
inhibition at 0.0412 µM (BTK; read-out: % Inhibition Point 1): 84%
inhibition at 0.123 µM (BTK; read-out: % Inhibition Point 1): 97%
inhibition at 0.37 µM (BTK; read-out: % Inhibition Point 1): 98%
inhibition at 1.11 µM (BTK; read-out: % Inhibition Point 1): 100%
inhibition at 3.33 µM (BTK; read-out: % Inhibition Point 1): 98%
inhibition at 10 µM (BTK; read-out: % Inhibition Point 1): 98%
inhibition at 0.000495 µM (BTK; read-out: % Inhibition Point 2): 1%
inhibition at 0.00152 µM (BTK; read-out: % Inhibition Point 2): 5%
inhibition at 0.00457 µM (BTK; read-out: % Inhibition Point 2): 22%
inhibition at 0.0137 µM (BTK; read-out: % Inhibition Point 2): 49%
inhibition at 0.0412 µM (BTK; read-out: % Inhibition Point 2): 80%
inhibition at 0.123 µM (BTK; read-out: % Inhibition Point 2): 96%
inhibition at 0.37 µM (BTK; read-out: % Inhibition Point 2): 98%
inhibition at 1.11 µM (BTK; read-out: % Inhibition Point 2): 102%
inhibition at 3.33 µM (BTK; read-out: % Inhibition Point 2): 97%
inhibition at 10 µM (BTK; read-out: % Inhibition Point 2): 99%
IC50 (JAK3): > 10000 nM
inhibition at 1 µM (JAK3): -7%
JAK3, BTK/Kinase (JAK3): > 781 x
Hillslope (JAK3): 0.86
JAK3 IC50 (JAK3; Z′-Lyte, [ATP] Km app, 1 h incubation, duplicate): no observable activities
inhibition at 0.000495 µM (JAK3; read-out: % Inhibition Point 1): 4%
inhibition at 0.00152 µM (JAK3; read-out: % Inhibition Point 1): -1%
inhibition at 0.00457 µM (JAK3; read-out: % Inhibition Point 1): 2%
inhibition at 0.0137 µM (JAK3; read-out: % Inhibition Point 1): 1%
inhibition at 0.0412 µM (JAK3; read-out: % Inhibition Point 1): 1%
inhibition at 0.123 µM (JAK3; read-out: % Inhibition Point 1): 2%
inhibition at 0.37 µM (JAK3; read-out: % Inhibition Point 1): 3%
inhibition at 1.11 µM (JAK3; read-out: % Inhibition Point 1): 6%
inhibition at 3.33 µM (JAK3; read-out: % Inhibition Point 1): 17%
inhibition at 10 µM (JAK3; read-out: % Inhibition Point 1): 32%
inhibition at 0.000495 µM (JAK3; read-out: % Inhibition Point 2): 1%
inhibition at 0.00152 µM (JAK3; read-out: % Inhibition Point 2): -1%
inhibition at 0.00457 µM (JAK3; read-out: % Inhibition Point 2): -1%
inhibition at 0.0137 µM (JAK3; read-out: % Inhibition Point 2): 1%
inhibition at 0.0412 µM (JAK3; read-out: % Inhibition Point 2): 3%
inhibition at 0.123 µM (JAK3; read-out: % Inhibition Point 2): 4%
inhibition at 0.37 µM (JAK3; read-out: % Inhibition Point 2): 0%
inhibition at 1.11 µM (JAK3; read-out: % Inhibition Point 2): 11%
inhibition at 3.33 µM (JAK3; read-out: % Inhibition Point 2): 14%
inhibition at 10 µM (JAK3; read-out: % Inhibition Point 2): 32%
kinact/KI (BLK [2]): 35000 M⁻¹ s⁻¹
BLK kinact/Ki (BLK [2]; listed as Dimethyl Analog): 35,500 M^-1S^-1
kinact (BLK [2]): 0.0021 s⁻¹

C=CC(=O)N1CCC[C@@H](n2nc(-c3ccc(Oc4ccccc4)cc3C)c3c(N)ncnc32)C1 [Compound 2, (R)-1-(3-(4-amino-3-(2-methyl-4-phenoxyphenyl)-1H-pyrazolo[3,4-d]pyrimidin-1-yl)piperidin-1-yl)prop-2-en-1-one]
inhibition at 1 µM (TXK): 99%
inhibition at 1 µM (MAP2K5 (MEK5)): 32%
inhibition at 1 µM (RIPK2): 95%
IC50 (BTK-NanoLuc fusion; 30 min): 211 nM
IC50 (BTK-NanoLuc fusion; 60 min (30 + 30)): 154 nM
IC50 (BTK-NanoLuc fusion; 90 min (30 + 60)): 118 nM
IC50 (BTK-NanoLuc fusion; 90 min post compound addition): 109 nM
IC50 (BTK-NanoLuc fusion; 120 min (30 + 90)): 109 nM
IC50 (JAK3): 874 nM
inhibition at 1 µM (JAK3): 65%
JAK3, BTK/Kinase (JAK3): 934 x
Hillslope (JAK3): 1.09
inhibition at 0.000495 µM (JAK3; read-out: % Inhibition Point 1): -1%
inhibition at 0.00152 µM (JAK3; read-out: % Inhibition Point 1): -7%
inhibition at 0.00457 µM (JAK3; read-out: % Inhibition Point 1): 2%
inhibition at 0.0137 µM (JAK3; read-out: % Inhibition Point 1): -5%
inhibition at 0.0412 µM (JAK3; read-out: % Inhibition Point 1): 6%
inhibition at 0.123 µM (JAK3; read-out: % Inhibition Point 1): 9%
inhibition at 0.37 µM (JAK3; read-out: % Inhibition Point 1): 28%
inhibition at 1.11 µM (JAK3; read-out: % Inhibition Point 1): 55%
inhibition at 3.33 µM (JAK3; read-out: % Inhibition Point 1): 89%
inhibition at 10 µM (JAK3; read-out: % Inhibition Point 1): 98%
inhibition at 0.000495 µM (JAK3; read-out: % Inhibition Point 2): -4%
inhibition at 0.00152 µM (JAK3; read-out: % Inhibition Point 2): -5%
inhibition at 0.00457 µM (JAK3; read-out: % Inhibition Point 2): 0%
inhibition at 0.0137 µM (JAK3; read-out: % Inhibition Point 2): -3%
inhibition at 0.0412 µM (JAK3; read-out: % Inhibition Point 2): -2%
inhibition at 0.123 µM (JAK3; read-out: % Inhibition Point 2): 10%
inhibition at 0.37 µM (JAK3; read-out: % Inhibition Point 2): 27%
inhibition at 1.11 µM (JAK3; read-out: % Inhibition Point 2): 56%
inhibition at 3.33 µM (JAK3; read-out: % Inhibition Point 2): 85%
inhibition at 10 µM (JAK3; read-out: % Inhibition Point 2): 93%
kinact/KI (BLK [2]): 320000 M⁻¹ s⁻¹
BLK kinact/Ki (BLK [2]; listed as Monomethyl Analog): 316,000 M^-1S^-1
kinact (BLK [2]): 0.0034 s⁻¹
